According to ChEMBL document CHEMBL1128375, “Prodrugs of nitroxyl as potential aldehyde dehydrogenase inhibitors vis-a-vis vascular smooth muscle relaxants” (J Med Chem, 1995):
pEC50: −log10 of the molar value.

Species: Oryctolagus cuniculus
Experiment: In vitro relaxation of precontracted rabbit aortic rings.
Type: functional
Conditions: Aorta

**Q.** How did the pEC50 turn out when `CC(=O)ON1C(=O)c2ccccc2S1(=O)=O` was run?
**A.** Its pEC50 is 4.28.

**Q.** With `O=C1c2ccccc2S(=O)(=O)N1O` as the compound, how does the pEC50 read?
**A.** Its pEC50 is 4.84.

**Q.** How did the pEC50 turn out when `O=S(=O)(NO)c1ccc(Cl)cc1` was run?
**A.** Its pEC50 is 5.87.

**Q.** How did the pEC50 turn out when `O=S(=O)(NO)c1ccccc1` was run?
**A.** Its pEC50 is 5.99.
